The test system of assay [1] is CGS 21680-induced catalepsy in mice. The experiment in a line: Activity on CGS 21680-induced Catalepsy. In kind it is in vivo, mouse (male ddY). Particulars: 10 mg/kg oral; for Total score (catalepsy): 10 animals, maximum 50 points, control 48; for Number of Animals showing remission: catalepsy score 4 points or less in 10 cases; for inhibition in vivo at 10 mg/kg: Mus musculus, CGS 21680-induced catalepsy, read-out: Remission ratio (%). As to the method: Activity on CGS 21680-induced Catalepsy
Parkinson's disease is motor deficit based on the degeneration and cell death of the nigrostriatal dopaminergic neuron. […] [Journal of Neuroscience, 16: 605 (1996)]. Accordingly, it is considered that adenosine A2A receptor agonists positively regulate the output of the striopallidal GABAergic neurons and, as a result, catalepsy is induced by the administration of CGS 21680.
This test was carried out using 10 animals per group of male ddY mice of 5 week age (22 to 25 g in body weight, Japan SLC). CGS 21680 (manufactured by RBI) was dissolved in a physiological saline (manufactured by Otsuka Pharmaceutical), and 10 μg/20 μl of the solution was injected into mouse intracerebro-ventricle. Test compounds were used by suspending them in distilled water containing 0.3% of polyoxyethylene(20)sorbitan monooleate (hereinafter referred to as "Tween 80") (manufactured by Otsuka Pharmaceutical). […] One hour after the administration of the test compound, only forelimbs or only hindlimbs of each animal were laid on a vertically arranged stand made of acryl, having a size of 4.5 cm in height and 1.0 cm in width, to measure catalepsy symptoms. All of the compounds were administered orally in a dose of 10 mg/kg.
The effect was judged by total catalepsy scores of 10 animals in one group (the maximum is 50 points). When the total score was 40 points or less, the activity of drugs was judged positive. The number of animals showing remission of catalepsy was expressed by the number of cases in which the catalepsy score was 4 points or less in 10 cases. The catalepsy remission ratio was expressed as the percentage of the total score in the test compound-administered group to the total score in the control group.

The next assay concerns the target T1, adenosine A2A receptor (Rattus norvegicus, UniProt P30543).
T1 construct: from tissue; host or cells: rat corpus striatum, washed membrane suspension
The experiment in a line: Adenosine receptor binding activity (adenosine A2A receptor binding test), 3H-CGS 21680 binding. Particulars: 2 h; 10^-7 M; read-out: A2A receptor inhibition ratio (%). The procedure:
Adenosine receptor binding activity (adenosine A2A receptor binding test) This test was carried out by slightly modifying the method of Bruns et al. [Molecular Pharmacology, 29: 331 (1986)].
Corpus striatum of a rat was suspended in an ice-cooled 50 mM tris(hydroxymethyl)aminomethane hydrochloride (hereinafter referred to as "Tris-HCl") buffer (pH 7.7) using Polytron Homogenizer (manufactured by Kinematica Co.). The suspension was centrifuged (50,000×g, 10 minutes), and the obtained precipitate was re-suspended in the same amount of 50 mM Tris-HCl buffer. The suspension was centrifuged under the same conditions, and the final precipitate was suspended in 50 mM Tris-HCl [containing 10 mM magnesium chloride and 0.02 unit/mg tissue of adenosine deaminase (manufactured by Sigma Co.)] to give a tissue concentration of 5 mg (wet weight)/ml.
To 1 ml of the tissue suspension thus prepared were added 50 μl of tritium-labeled CGS 21680 {^3 H-2-[p-(2-carboxyethyl)phenethylamino]-5'-N-ethylcarboxamido)adenosine: 40 Ci/mmol; manufactured by New England Nuclear Co.[The Journal of Pharmacology and Experimental Therapeutics, 251: 888 (1989)]} (final concentration:4.0 nM) and 50 μl of a test compound. The resulting mixture was allowed to stand for 120 minutes at 25° C., and then rapidly filtered by suction through a glass fiber filter (GF/C, manufactured by Whatman Co.) The filter was immediately washed three times with […] of an ice-cooled 50 mM Tris-HCl buffer, and transferred to a vial, a scintillator (EX-H , manufactured by Wako Pure Chemical Industries, Ltd.) was added thereto, and the radioactivity on the filter was determined with a liquid scintillation counter (manufactured by Packard Instrument Co.) […]
The inhibition ratio of the test compound against the A2A receptor binding (^3 H-CGS 21680 binding) was calculated by the following equation:
Inhibition ratio (%)={1-(Amount of the binding in the presence of the test compound-Amount of the nonspecific binding)/(Amount of the total binding-Amount of the nonspecific binding)}×100
(Note) Amount of the total binding means the amount of radioactivity of ^3 H-CGS 21680 bound in the absence of the test compound. Amount of the nonspecific binding means the amount of radioactivity of ^3 H-CGS 21680 bound in the presence of 100 μM cyclopentyladenosine (CPA, manufactured by Sigma Co.) Amount of the binding in the presence of the test compound means the amount of radioactivity of ^3 H-CGS 21680 bound in the presence of the test compound at various levels of concentrations.

The values below come from patent US6222035A, “[1,2,4] triazolo [1,5-C] pyrimidine derivatives” (Kyowa Hakko Kogyo Co., Ltd., priority 1997, dated 2001).

Where a name gives a salt, the structure may show the parent alone.

T1 sequence (P30543 whole entry): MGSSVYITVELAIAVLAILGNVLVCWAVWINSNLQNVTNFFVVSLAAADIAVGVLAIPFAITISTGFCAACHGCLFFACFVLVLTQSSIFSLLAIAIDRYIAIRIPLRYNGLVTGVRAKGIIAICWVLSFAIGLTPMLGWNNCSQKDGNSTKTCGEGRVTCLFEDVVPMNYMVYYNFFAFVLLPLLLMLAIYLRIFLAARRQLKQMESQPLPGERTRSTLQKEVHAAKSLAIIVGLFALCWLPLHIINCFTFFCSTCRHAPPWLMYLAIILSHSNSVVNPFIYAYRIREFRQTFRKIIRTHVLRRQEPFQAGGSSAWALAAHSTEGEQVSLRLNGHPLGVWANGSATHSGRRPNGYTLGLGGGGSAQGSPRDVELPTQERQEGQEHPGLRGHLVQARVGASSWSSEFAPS

Consider `CC(C)OCCCN1CCN(c2cc3nc(-c4ccco4)nn3c(N)n2)CC1` [Compound 101, 5-Amino-2-(2-furyl)-7-(4-(3-isopropoxypropyl)piperazinyl)[1,2,4]triazolo[1,5-c]pyrimidine], for which, in assay [1], the “Total score (catalepsy)” value was 8, the “Number of Animals showing remission” value is 10 and the inhibition in vivo at 10 mg/kg turned out to be 82%. Moreover, the inhibition at 0.1 µM at adenosine A2A receptor was 46%.
With `Nc1nc(N2CCN(CCOCCO)CC2)cc2nc(-c3ccco3)nn12` [Compound 103, 5-Amino-2-(2-furyl)-7-(4-(2-(2-hydroxyethoxy)ethyl)piperazinyl)[1,2,4]triazolo[1,5-c]pyrimidine], in assay [1], the “Total score (catalepsy)” value is given as 2, the “Number of Animals showing remission” value amounted to 10 and the inhibition in vivo at 10 mg/kg is 94%. Also, the inhibition at 0.1 µM on adenosine A2A receptor is 53%.
On the same counts, the results for `C[C@@H]1CN(c2cc3nc(-c4ccco4)nn3c(N)n2)C[C@H](C)N1C` [Compound 115, 5-Amino-7-(cis-3,5-dimethyl-4-methylpiperazinyl)-2-(2-furyl)[1,2,4]triazolo[1,5-c]pyrimidine hydrochloride] are 5, 10, 88% and 22%.
With `C[C@@H]1CN(c2cc3nc(-c4ccco4)nn3c(N)n2)C[C@H](C)N1Cc1ccccc1` [Compound 116, 5-Amino-7-(4-benzyl-cis-3,5-dimethylpiperazinyl)-2-(2-furyl)[1,2,4]triazolo[1,5-c]pyrimidine], in assay [1], the “Total score (catalepsy)” value is on record as 5, the “Number of Animals showing remission” value is given as 10 and the inhibition in vivo at 10 mg/kg is 90%. Besides, the inhibition at 0.1 µM at adenosine A2A receptor stood at 38%.
Turning to `C[C@@H]1CN(c2cc3nc(-c4ccco4)nn3c(N)n2)C[C@H](C)N1CCO` [Compound 120, 5-Amino-7-(cis-3,5-dimethyl-4-(2-hydroxyethyl)piperazinyl)-2-(2-furyl)[1,2,4]triazolo[1,5-c]pyrimidine], in assay [1], the “Total score (catalepsy)” value is 3, the “Number of Animals showing remission” value was found to be 10 and the inhibition in vivo at 10 mg/kg stood at 94%. The inhibition at 0.1 µM on adenosine A2A receptor turned out to be 29%.
Consider `CCCN1CCN(c2cc3nc(-c4ccco4)nn3c(N)n2)CC1` [Compound 123, 5-Amino-2-(2-furyl)-7-(4-propylpiperazinyl)[1,2,4]triazolo[1,5-c]pyrimidine], for which, in assay [1], the “Total score (catalepsy)” value is recorded as 1, the “Number of Animals showing remission” value is given as 10 and the inhibition in vivo at 10 mg/kg was 96%. In addition, the inhibition at 0.1 µM on adenosine A2A receptor amounted to 42%.
On the same counts, the results for `C=CCN1CCN(c2cc3nc(-c4ccco4)nn3c(N)n2)CC1` [Compound 124, 5-Amino-7-(4-allylpiperazinyl)-2-(2-furyl)[1,2,4]triazolo[1,5-c]pyrimidine] are 12, 9, 76% and 59%.
On the same counts, the results for `Nc1nc(N2CCN(CCF)CC2)cc2nc(-c3ccco3)nn12` [Compound 126, 5-Amino-7-(4-(2-fluoroethyl)piperazinyl)-2-(2-furyl)[1,2,4]triazolo[1,5-c]pyrimidine] are 2, 9, 96% and 60%.
`Nc1nc(N2CCN(CCCF)CC2)cc2nc(-c3ccco3)nn12` [Compound 127, 5-Amino-7-(4-(3-fluoropropyl)piperazinyl)-2-(2-furyl)[1,2,4]triazolo[1,5-c]pyrimidine]: in assay [1], the “Total score (catalepsy)” value was found to be 3, the “Number of Animals showing remission” value is listed as 10 and the inhibition in vivo at 10 mg/kg was determined as 96%. Moreover, the inhibition at 0.1 µM at adenosine A2A receptor came to 59%.
With `CCCCN1CCN(c2cc3nc(-c4ccco4)nn3c(N)n2)CC1` [Compound 135, 5-Amino-7-(4-butylpiperazinyl)-2-(2-furyl)[1,2,4]triazolo[1,5-c]pyrimidine], in assay [1], the “Total score (catalepsy)” value stood at 9, the “Number of Animals showing remission” value is listed as 9 and the inhibition in vivo at 10 mg/kg is 80%. Further, at adenosine A2A receptor, the inhibition at 0.1 µM amounted to 49%.
As for `Cc1nc(CN2CCN(c3cc4nc(-c5ccco5)nn4c(N)n3)CC2)cs1` [Compound 142, 5-Amino-2-(2-furyl)-7-(4-(2-methylthiazol-4-ylmethyl)piperazinyl)[1,2,4]triazolo[1,5-c]pyrimidine], in assay [1], the “Total score (catalepsy)” value is 6, the “Number of Animals showing remission” value turned out to be 10 and the inhibition in vivo at 10 mg/kg stood at 88%. Also, the inhibition at 0.1 µM on adenosine A2A receptor is 66%.
Take `Nc1nc(N2CCN(Cc3cnns3)CC2)cc2nc(-c3ccco3)nn12` [Compound 144, 5-Amino-2-(2-furyl)-7-(4-(1,2,3-thiadiazol-5-ylmethyl)piperazinyl)[1,2,4]triazolo[1,5-c]pyrimidine]: in assay [1], the “Total score (catalepsy)” value is reported as 9, the “Number of Animals showing remission” value was 9 and the inhibition in vivo at 10 mg/kg is 80%. The inhibition at 0.1 µM at adenosine A2A receptor amounted to 58%.
As for `CC(C)C(=O)c1cnc(N)n2nc(-c3ccco3)nc12` [Compound 153, 5-Amino-8-(1-oxo-2-methylpropyl)-2-(2-furyl)[1,2,4]triazolo[1,5-c]pyrimidine], in assay [1], the “Total score (catalepsy)” value is on record as 10, the “Number of Animals showing remission” value worked out at 9 and the inhibition in vivo at 10 mg/kg came out at 80%. Besides, the inhibition at 0.1 µM at adenosine A2A receptor came out at 48%.
On to `CCC(=O)c1cnc(N)n2nc(-c3ccco3)nc12` [Compound 158, 5-Amino-2-(2-furyl)-8-propionyl[1,2,4]triazolo[1,5-c]pyrimidine], for which, in assay [1], the “Total score (catalepsy)” value worked out at 23, the “Number of Animals showing remission” value is 8 and the inhibition in vivo at 10 mg/kg stood at 52%. The inhibition at 0.1 µM at adenosine A2A receptor was found to be 92%.
Turning to `CCNC(=O)c1cnc(N)n2nc(-c3ccco3)nc12` [Compound 169, 5-Amino-8-ethylcarbamoyl-2-(2-furyl)[1,2,4]triazolo[1,5-c]pyrimidine], in assay [1], the “Total score (catalepsy)” value is 9, the “Number of Animals showing remission” value stood at 10 and the inhibition in vivo at 10 mg/kg was determined as 82%. In addition, the inhibition at 0.1 µM on adenosine A2A receptor came out at 96%.
For `N#Cc1ccccc1CSc1cc2nc(-c3ccco3)nn2c(N)n1` [Compound 188, 5-Amino-7-(2-cyanobenzylthio)-2-(2-furyl)[1,2,4]triazolo[1,5-c]pyrimidine], in assay [1], the “Total score (catalepsy)” value came to 15, the “Number of Animals showing remission” value stood at 2 and the inhibition in vivo at 10 mg/kg is 70%. For the same compound, on adenosine A2A receptor, the inhibition at 0.1 µM was 91%.
